Patent US7432283B2, “Heterocyclic GABAA subtype selective receptor modulators” (Roche Palo Alto LLC, priority 2004, dated 2008)

Legend:
GABAA α1β2γ2 = target: T1, GABAA α1β2γ2 (Homo sapiens, UniProt P14867+P18507+P47870); test: 35S-TBPS binding assay, GABAA α1β2γ2; settings: 35S-TBPS (5 nM) competition, GABA 1 μM, HEK293 cell membranes, 2 hours at room temperature; for IC50: read-out: pIC50 α1β2γ2 (converted)
T1 construct: expressed in transfected cells; host or cells: HEK293
Protocol: (§1) The binding assay is based on the assay reported by K. Gee et al., Eur. J. Pharmacol. 1987 136:419-423.
(§2) Homogenate preparation: Membrane preparations of HEK293 cells containing either GABAA α1β2γ2 or GABAA α2β3γ2 constructs were performed according to a modified procedure previously described by Gee et al. (supra). Whole HEK 293 cells in D-PBS (calcium/magnesium free) buffer adjusted to pH 7.4 were centrifuged at 7,280×g for 20 m. After discarding the supernatant, the pellet was resuspended in the buffer and centrifuged at 1,820×g for 10 m. Afterwards, the supernatant was discarded and the pellet resuspended in ice-cold preparation buffer (50 mM Tris HCl pH 7.4, 4° C. and 150 mM KCl), homogenized for 30 sec using a Brinkmann Polytron PT3000 (setting 6) and centrifuged at 48,000×g for 30 m at 4° C. The centrifugation and homogenization procedure was repeated two more times for a total of 3 times before resuspending the membranes at a final protein concentration of 0.5 mg/mL. Aliquots (30 mL) of the final membrane preparation were then centrifuged at 48,000×g for 30 m, and the resulting pellets were stored at −80° C. until required.
(§3) 35S-TBPS binding assay. Membrane pellets containing either GABAA α1β2γ2 or GABAA α2β3γ2 constructs were thawed on ice, resuspended in 10 mL of 50 mM Tris HCl pH 7.4, 4° C. and 150 mM KCl and centrifuged at 48,000×g, 30 m at 4° C. After discarding the supernatant, the pellet was resuspended in 30 mL incubation buffer (50 mM Tris HCl pH 7.4, 25° C. and 150 mM KCl) at approximately 0.5 mg/mL protein concentration. In ^35S-TBPS competition studies, HEK293 membranes were incubated with ^35S-TBPS (5 nM final) and GABA (1 μM) in the absence or presence of competitor at concentrations ranging from 0.01 nM to 10 μM in 125 μL incubation buffer for 2 hours at room temperature (˜22° C.). Non-specific binding was assayed with picrotoxin (100 μM final concentration). […] Measurement of bound radioactivity was performed using a Packard Microplate 96 well topcount scintillation counter. […]

GABAA α2β3γ2 = target: T2, GABAA α2β3γ2 (Homo sapiens, UniProt P18507+P28472+P47869); test: 35S-TBPS binding assay, GABAA α2β3γ2; settings: 35S-TBPS (5 nM) competition, GABA 1 μM, HEK293 cell membranes, 2 hours at room temperature; for IC50: read-out: pIC50 α2β3γ2 (converted)
T2 construct: expressed in transfected cells; host or cells: HEK293
Protocol: as §1, §2, §3

T1 sequence (P14867 28-456): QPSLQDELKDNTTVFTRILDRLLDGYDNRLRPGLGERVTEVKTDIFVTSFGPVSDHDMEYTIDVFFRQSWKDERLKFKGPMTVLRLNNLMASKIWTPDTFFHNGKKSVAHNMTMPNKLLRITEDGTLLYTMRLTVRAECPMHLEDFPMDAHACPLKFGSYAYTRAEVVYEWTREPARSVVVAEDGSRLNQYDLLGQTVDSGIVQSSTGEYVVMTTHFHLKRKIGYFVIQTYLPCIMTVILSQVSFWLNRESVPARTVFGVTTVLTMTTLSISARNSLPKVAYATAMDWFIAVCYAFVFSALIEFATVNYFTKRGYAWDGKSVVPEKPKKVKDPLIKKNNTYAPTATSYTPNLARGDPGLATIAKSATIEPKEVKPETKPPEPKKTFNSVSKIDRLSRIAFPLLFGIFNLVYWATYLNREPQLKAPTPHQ
T1 sequence (P47870 25-512 limits assumed): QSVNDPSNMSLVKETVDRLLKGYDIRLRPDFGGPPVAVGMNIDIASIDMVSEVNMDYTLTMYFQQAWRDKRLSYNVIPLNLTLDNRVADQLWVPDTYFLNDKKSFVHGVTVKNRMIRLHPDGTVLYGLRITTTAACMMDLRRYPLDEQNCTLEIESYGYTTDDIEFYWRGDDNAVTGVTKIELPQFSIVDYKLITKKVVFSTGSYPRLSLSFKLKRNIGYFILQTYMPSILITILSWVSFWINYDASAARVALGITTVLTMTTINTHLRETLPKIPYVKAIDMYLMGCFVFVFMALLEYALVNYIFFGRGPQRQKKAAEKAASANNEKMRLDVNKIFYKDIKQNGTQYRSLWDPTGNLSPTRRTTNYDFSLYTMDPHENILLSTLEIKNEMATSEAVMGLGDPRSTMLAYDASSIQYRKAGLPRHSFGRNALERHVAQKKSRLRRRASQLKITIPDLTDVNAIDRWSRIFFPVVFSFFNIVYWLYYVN
T1 sequence (P18507 40-475): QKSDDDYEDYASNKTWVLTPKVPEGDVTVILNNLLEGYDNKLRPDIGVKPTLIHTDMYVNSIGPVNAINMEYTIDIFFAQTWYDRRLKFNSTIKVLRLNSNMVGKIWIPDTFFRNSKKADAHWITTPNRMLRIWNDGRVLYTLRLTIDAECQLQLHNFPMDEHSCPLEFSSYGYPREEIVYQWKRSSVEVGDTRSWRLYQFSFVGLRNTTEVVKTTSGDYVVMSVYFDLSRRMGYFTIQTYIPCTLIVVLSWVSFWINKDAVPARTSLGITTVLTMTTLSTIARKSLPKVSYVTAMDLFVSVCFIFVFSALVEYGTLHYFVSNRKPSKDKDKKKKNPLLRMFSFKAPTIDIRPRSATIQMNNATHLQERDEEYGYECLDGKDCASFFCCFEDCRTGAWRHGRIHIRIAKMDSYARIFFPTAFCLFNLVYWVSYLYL
T2 sequence (P47869 29-451): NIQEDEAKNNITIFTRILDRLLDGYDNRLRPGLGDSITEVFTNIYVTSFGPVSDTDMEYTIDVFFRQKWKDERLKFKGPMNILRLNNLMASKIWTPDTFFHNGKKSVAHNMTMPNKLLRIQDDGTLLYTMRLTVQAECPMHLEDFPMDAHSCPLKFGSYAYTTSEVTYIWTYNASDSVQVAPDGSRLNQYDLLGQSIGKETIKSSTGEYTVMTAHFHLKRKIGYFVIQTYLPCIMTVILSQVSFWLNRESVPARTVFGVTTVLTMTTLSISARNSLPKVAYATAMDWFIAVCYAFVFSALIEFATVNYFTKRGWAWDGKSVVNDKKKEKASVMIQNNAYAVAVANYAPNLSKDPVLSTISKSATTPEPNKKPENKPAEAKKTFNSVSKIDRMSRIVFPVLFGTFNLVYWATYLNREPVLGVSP
T2 sequence (P28472 26-473): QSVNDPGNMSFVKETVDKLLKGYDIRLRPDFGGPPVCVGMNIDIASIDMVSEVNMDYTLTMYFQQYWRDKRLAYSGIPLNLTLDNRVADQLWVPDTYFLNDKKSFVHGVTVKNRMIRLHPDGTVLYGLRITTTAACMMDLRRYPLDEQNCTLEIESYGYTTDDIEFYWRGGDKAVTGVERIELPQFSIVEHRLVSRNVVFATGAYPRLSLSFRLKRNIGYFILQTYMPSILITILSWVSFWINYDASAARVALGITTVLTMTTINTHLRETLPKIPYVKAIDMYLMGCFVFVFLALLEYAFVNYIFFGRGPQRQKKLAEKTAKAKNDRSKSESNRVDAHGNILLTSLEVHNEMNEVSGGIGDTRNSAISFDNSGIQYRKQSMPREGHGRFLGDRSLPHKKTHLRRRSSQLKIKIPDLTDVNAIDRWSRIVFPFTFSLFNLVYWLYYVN
T2 sequence (P18507 40-475): as the sequence (P18507 40-475) above

Molecule	melting point	also measured
7-(2,4-Dichloro-phenyl)-3-ethynyl-2-methyl-4,5,6,7-tetrahydro-2H-|pyrazolo[3,4-b]pyridine [Compound 3-10]	–	pIC50 α1β2γ2 (GABAA α1β2γ2): 5.423; pIC50 α2β3γ2 (GABAA α2β3γ2): 6.883
Cn1nc2c(c1Cl)CCCN2c1ccc(Cl)cc1Cl [Compound 1-9, 3-chloro-7-(2,4-dichloro-phenyl)-2-methyl-4,5,6,7-tetrahydro-2H-pyrazolo [3,4-b]pyridine]	94.5 to 95.5 °C	IC50 (GABAA α1β2γ2): 1200 nM; IC50 (GABAA α2β3γ2): 96.4 nM
Cc1c2c(nn1C)N(c1ccc(Cl)cc1Cl)CCC2 [Compound 2-17, 7-(2,4-Dichloro-phenyl)-2,3-dimethyl-4,5,6,7-tetrahydro-2H-pyrazolo[3,4-b]pyridine]	66.6 to 76.6 °C	IC50 (GABAA α1β2γ2): 2840 nM; IC50 (GABAA α2β3γ2): 105 nM
Cc1cc(C)c(N2CCCc3c2nn(C)c3N)c(Cl)c1 [Compound 5-45, 7-(2-Chloro-4,6-dimethyl-phenyl)-2-methyl-4,5,6,7-tetrahydro-2H-pyrazolo[3,4-b]pyridin-3-ylamine]	234 to 236 °C	–
CCCN(CCCC#N)c1c2c(nn1C)N(c1c(C)cc(C)cc1C)CCC2 [Compound 5-48, 4-{[2-Methyl-7-(2,4,6-trimethyl-phenyl)-4,5,6,7-tetrahydro-2H-pyrazolo [3,4-b]pyridin-3-yl]-propyl-amino}-butyronitrile]	108.3 to 111 °C	–
CNc1c2c(nn1C)N(c1c(C)cc(C)cc1C)CCC2 [Compound 5-49, Methyl-[2-methyl-7-(2,4,6-trimethyl-phenyl)-4,5,6,7-tetrahydro-2H-pyrazolo[3,4-b]pyridin-3-yl]-amine]	143.3 to 144.9 °C	–
Cc1cc(C)c(N2CCCc3c2nn(C)c3N)c(C)c1 [Compound 5-52, 2-methyl-7-(2,4,6-trimethyl-phenyl)-4,5,6,7-tetrahydro-2H-pyrazolo[3,4-b]pyridin-3-ylamine]	208.8 to 210.9 °C	–
Cn1nc2c(c1C(=O)c1ccccn1)CCCN2c1ccc(Cl)cc1Cl [Compound 6-1, [7-(2,4-Dichloro-phenyl)-2-methyl-4,5,6,7-tetrahydro-2H-pyrazolo[3,4-b]pyridin-2-yl]-methanone]	142.1 to 149.2 °C	–
CO/N=C(\C)c1c2c(nn1C)N(c1c(C)cc(C)cc1C)CCC2 [Compound 6-4, 1-[2-Methyl-7-(2,4,6-trimethyl-phenyl)-4,5,6,7-tetrahydro-2H-pyrazolo[3,4-b]pyridin-3-yl]-ethanone O-methyl-oxime]	104.2 to 106.4 °C	–
CO/N=C/c1c2c(nn1C)N(c1c(C)cc(C)cc1C)CCC2 [Compound 6-5, 2-Methyl-7-(2,4,6-trimethyl-phenyl)-4,5,6,7-tetrahydro-2H-pyrazolo[3,4-b] pyridine-3-carbaldehyde O-methyl-oxime]	89 to 90.1 °C	–
CCCN(CC1CC1)C(=O)c1c2c(nn1C)N(c1c(C)cc(C)cc1Cl)CCC2 [Compound 7-1, 7-(2-Chloro-4,6-dimethylphenyl)-2-methyl-4,5,6,7-tetrahydro-2H-pyrazolo[3,4-b]pyridine-3-carboxylic acidcyclopropylmethylpropyl amide]	120.6 to 122 °C	–
Cc1cc(C)c(N2CCCc3c2nn(C)c3C(=O)N2CCc3ccccc3C2)c(C)c1 [Compound 7-2, (3,4-Dihydro-1H-isoquinolin-2-yl)-[2-methyl-7-(2,4,6-trimethyl-phenyl)-4,5,6,7-tetrahydro-2H-pyrazolo[3,4-b]pyridin-3-yl]-methanone]	80.3 to 87.7 °C	–
CCC(=O)Nc1c2c(nn1C)N(c1c(C)cc(C)cc1C)CCC2 [Compound 7-3, N-[2-Methyl-7-(2,4,6-trimethylphenyl)-4,5,6,7-tetrahydro-2H-pyrazolo[3,4-b]pyridin-3-yl]propionamide]	226 to 228 °C	–
COCC(=O)Nc1c2c(nn1C)N(c1c(C)cc(C)cc1C)CCC2 [Compound 7-4, 2-Methoxy-N-[2-methyl-7-(2,4,6-trimethyl-phenyl)-4,5,6,7-tetrahydro-2H-pyrazolo[3,4-b]pyridin-3-yl]acetamide]	133.8 to 135 °C	–

Second part, led by results:

melting point	Molecule	also measured
59 to 63 °C	Cc1cc(C)c(N2CCCc3c2nn(C)c3-c2ccccc2C(F)(F)F)c(C)c1 [Compound 9-1, 2-Methyl-3-(2-trifluoromethyl-phenyl)-7-(2,4,6-trimethyl-phenyl)-4,5,6,7-tetrahydro-2H-pyrazolo[3,4-b]pyridine]	–
164.2 to 166.8 °C	Cn1nc2c(c1-c1cncnc1)CCCN2c1ccc(Cl)cc1Cl [Compound 9-2, 7-(2,4-Dichloro-phenyl)-2-methyl-3-pyrimidin-5-yl-4,5,6,7-tetrahydro-2H-pyrazolo[3,4-b]pyridine]	–
123.5 to 125.5 °C	Cn1nc2c(c1-c1ccncc1)CCCN2c1ccc(Cl)cc1Cl [Compound 9-3, 7-(2,4-Dichloro-phenyl)-2-methyl-3-pyridin-4-yl-4,5,6,7-tetrahydro-2H-pyrazolo[3,4-b]pyridine]	–
256.8 to 258 °C	Cc1cc(C)c(N2C(=O)CCc3c2nn(C)c3Br)c(C)c1 [Compound 9-4, 3-Bromo-2-methyl-7-(2,4,6-trimethyl-phenyl)-2,4,5,7-tetrahydro-pyrazolo[3,4-b]pyridin-6-one]	–
103.6 to 104.8 °C	Cc1cc(C)c(N2CCOc3cn(C)nc32)c(C)c1 [Compound 9-5, 2-Methyl-7-(2,4,6-trimethyl-phenyl)-2,5,6,7-tetrahydro-pyrazolo[4,3-b][1,4]oxazine]	–
169.9 to 172.8 °C	COc1cccc(OC)c1-c1c2c(nn1C)N(c1c(C)cc(C)cc1C)CCC2 [Compound 9-6, 3-(2,6-Dimethoxy-phenyl)-2-methyl-7-(2,4,6-trimethyl-phenyl)-4,5,6,7-tetrahydro-2H-pyrazolo[3,5-b]pyridine]	–
